Where “and” joins values, the source holds several entries; their conditions need not be identical. Equal entries are not always repeated. Where two headings read alike, the source gives them in different places.
Key:
[1] = Stability of the solid forms (net increase in total impurities at 40 C/30% RH); format: physicochemical
[2] = Vapor sorption (DVS) of free forms; format: physicochemical
Description: In one embodiment, the hydrated Free Form A may be converted to anhydrous Free Form B of the compound by equilibrating in a low humidity environment. […] Upon dehydrating hydrated Free Form A, a corresponding anhydrous Free Form B may be obtained. […] Whether the hydrated Free Form A could absorb additional water is not known at this time. […] At 25° C., the critical humidity for conversion is around 40% (see vapor sorption experiment). […] Humidity was then changed by 5% increments until 95% RH was achieved using the same limiting conditions. The reverse steps were executed on the desorption side from 95% down to 5% RH, while always maintaining 25° C. temperature.

S. aureus DNA Topo IV = S. aureus DNA Topo IV (Staphylococcus aureus, UniProt P0C1S7); assay: DNA Topo IV ATPase assay; format: biochemical; conditions: solid forms, Table 27c
Description: The conversion of ATP to ADP by S. aureus TopoIV enzyme was coupled to the conversion of NADH to NAD+, and the progress of the reaction was measured by the change in absorbance at 340 nm. TopoIV (64 nM) was incubated with the selected compound (3% DMSO final) in buffer for 10 minutes at 30° C. The buffer consisted of 100 mM Tris 7.5, 1.5 mM MgCl2, 200 mM K·Glutamate, 2.5 mM phosphoenol pyruvate, 0.2 mM NADH, 1 mM DTT, 5 ng/mL linearized DNA, 50 ng/mL BSA, 30 ng/mL pyruvate kinase, and 10 ng/mL lactate dehyrodgenase (LDH). The reaction was initiated with ATP, and rates were monitored continuously for 20 minutes at 30° C. on a Molecular Devices SpectraMAX plate reader. The inhibition constant, Ki, and the IC50 were determined from plots of rate vs. concentration of selected compound fit to the Morrison Equation for tight binding inhibitors.

E. coli DNA Topo IV = assay: E. coli enzyme ATPase inhibition assay (Table 27b); format: biochemical; conditions: E. coli DNA Topo IV (table title), solid forms
[3] = system: Staphylococcus aureus ATCC 29213; assay: microbe, parasite or virus in culture; format: cell-based; conditions: Protocol 1
[4] = system: Enterococcus faecium ATCC 49624; assay: Gyrase MIC determination using microdilution broth method (Protocol 1); format: cell-based
Escherichia coli AG100 = assay: Gyrase MIC determination against Gram negatives using microdilution broth method (Protocol 2); format: cell-based
Description: (§1) Compounds of this invention were tested for antimicrobial activity by susceptibility testing in liquid media. […] The specific protocols used were as follows:
(§2) Protocol 2: Gyrase MIC Determination of Compounds Against Gram Negatives Using Microdilution Broth Method
(§3) Strains (MHII Media for all; Broth and Agar): • 1. Escherichia coli AG100 WT • 2. Escherichia coli AG100 tolC • 3. […] Haemophilus influenzae Rd0894 (AcrA−)
(§4) Inoculum Prep: • 1. Using the BBL Prompt kit, picked 5 big or 10 small, well separated colonies from cultures grown on agar medium and inoculated 1 mL sterile saline that came with the kit. • 2. Vortexed the wells for ˜30 s to give a suspension of ˜10^8 cells/mL. Actual density could be confirmed by plating out dilutions of this suspension. • 3. Diluted the suspension 1/100 by transferring 0.15 mL of cells into 15 mL (˜10^6 cells/mL) sterile broth (see below) for each plate of compounds tested, swirled to mix. […] Used 50 μl cells (˜5×10^4 cells) to inoculate each microtiter well containing 50 μl of the drug diluted in broth (see below).
(§5) Drug Dilutions, Inoculation, MIC Determination: • 1. […] Diluted drug/compound stocks to 200× desired final concentration in 50 μL DMSO. If starting concentration of MICs was 8 μg/mL final concentration, then required 6.25 μL of stock+43.75 μL DMSO. Each 200× stock was placed in a separate row of column 1 of a new 96 well microtiter plate. • 3. Added 25 μL of DMSO to columns 2-12 of all rows of the microtiter plate containing 200× compound stocks and serially diluted 25 μL from column 1 through column 11, changed tips after each column. i.e. 25 μL compound+25 μL DMSO=2× dilution. Left “no compound” DMSO well at the end of the series for control. • 4. For each strain tested, prepared two microtiter plates with 50 μL of MHII broth using a Matrix pipettor. • 5. Transferred 0.5 μL of each dilution (w/Matrix auto-pipettor) to 50 μL of medium/microtiter well prior to the addition of 50 μl of cells. The usual starting concentration of compound was 8 μg/mL after the 1/200 dilution into medium+cells−compound concentrations decreased in 2× steps across the rows of a microtiter plate. All MICs were done in duplicate. • 6. All wells were inoculated with 50 μl of diluted cell suspension (see above) to a final volume of 100 μl. • 7. After inoculum was added, each well was mixed thoroughly with a manual multichannel pipettor; same tips were used going from low to high concentration of drug in the same microtiter plate. • 8. Plates were incubated at 37° C. for at least 18 hours. • 9.
(§6) Examined the test plates after the correct incubation time and read the MIC endpoint at the concentration where a marked reduction occurred in the appearance of growth on the test plate as compared to that of growth on the positive control plates.

Haemophilus influenzae = assay: as above; format: cell-based; conditions: Haemophilus influenzae Rd0894 (AcrA-)
Description: as §1, §2, §3, §4, §5, §6

S. aureus DNA gyrase = S. aureus DNA gyrase (Staphylococcus aureus, UniProt P0A0K8); assay: DNA gyrase ATPase assay; conditions: solid forms, Table 27a
[5] = system: Enterococcus faecalis ATCC 29212; assay: Gyrase MIC determination using microdilution broth method (Protocol 1); format: cell-based; conditions: Enterococcus faecalis ATCC 29212, with 3% Laked Horse Blood
[6] = Monkey oral pharmacokinetic study; format: in vivo, cynomolgus monkeys; conditions: 0.5% MC, plasma analyte
Excerpt: (§7) Plasma concentration vs. time data was subjected to noncompartmental pharmacokinetic (PK) analysis.

[7] = Rat oral pharmacokinetic study; format: in vivo, Sprague Dawley rats; conditions: plasma analyte; for AUC: male, Sprague Dawley, plasma, po, read-out: AUCextrap
Excerpt: as §7

[8] = system: M. tuberculosis ATCC 35801 (strain Erdman); assay: Mouse M. tuberculosis (Erdman) 28 day lung infection model; format: in vivo, M. tuberculosis; host Balb/c mice; conditions: 28 days; for Log Reduction vs. Early Control / Median Lung Burden / Log Reduction vs. Late Control: Table 23b
[9] = Pharmacokinetic studies: in vivo conversion of prodrug; conditions: in at least rats, dogs and monkeys
Description: The pharmacokinetic parameters of selected compounds of this invention were determined in the experiments described below. General analytic procedures and specific experimental protocols were employed as follows: […]

[10] = Rat IV pharmacokinetic study; conditions: D5W, plasma analyte
[11] = Monkey IV pharmacokinetic study; conditions: Compound W IV 5 mg/kg, D5W, plasma analyte
[12] = Staphylococcus aureus ATCC 29213
[13] = Staphylococcus aureus ATCC 29213 with 50% Mouse Serum
[14] = Enterococcus faecium ATCC 49624 with 3% Laked Horse Blood

With `CCNC(=O)Nc1nc2cc(-c3cnc(C(C)(C)OP(=O)(O)O)nc3)c(F)c([C@H]3CCCO3)c2[nH]1` [Form A, (R)-2-(5-(2-(3-ethylureido)-6-fluoro-7-(tetrahydrofuran-2-yl)-1H-benzo[d]imidazol-5-yl)pyrimidin-2-yl)propan-2-yl dihydrogen phosphate] the “Net % increase in total impurities” value ([1]; 15 days) was 0.07%, the “water content of fully hydrated form (vapor sorption isotherm)” value ([2]; vapor sorption, 25° C.) was “about 6 weight %” and the Ki (S. aureus DNA Topo IV) was less than 4 nM. It also gave a Ki (E. coli DNA Topo IV) of 11 nM, an MIC [3, 12] of 4 µg/mL and an MIC ([3]; Staphylococcus aureus, ATCC29213, Staphylococcus aureus ATCC 29213 with 50% Mouse Serum, read-out: MIC) of 1 µg/mL. For the same compound, the MIC ([4]; ATCC49624, Enterococcus faecium ATCC 49624 with 3% Laked Horse Blood, read-out: MIC) was 4 µg/mL, the MIC (Escherichia coli AG100; Escherichia coli AG100 WT) was greater than 8 µg/mL and the MIC (Escherichia coli AG100; Escherichia coli AG100 tolC) was greater than 8 µg/mL. The MIC (Haemophilus influenzae) was 0.25 µg/mL and the Ki (S. aureus DNA gyrase) was 26 nM.

For `CCNC(=O)Nc1nc2cc(-c3cnc(C(C)(C)OP(=O)(O)O)nc3)c(F)c([C@H]3CCCO3)c2[nH]1` [Form C, (R)-2-(5-(2-(3-ethylureido)-6-fluoro-7-(tetrahydrofuran-2-yl)-1H-benzo[d]imidazol-5-yl)pyrimidin-2-yl)propan-2-yl dihydrogen phosphate], the “Net % increase in total impurities” value ([1]; 17 days, listed as C) was 0.18%, the Ki (E. coli DNA Topo IV) was less than 6 nM and the MIC ([3]; Staphylococcus aureus ATCC 29213 GyrB T173I) was greater than 16 µg/mL. For the same compound, the MIC [3, 13] was 1 µg/mL and 2 µg/mL, the MIC ([3]; Staphylococcus aureus, ATCC29213, Staphylococcus aureus ATCC 29213, read-out: MIC) was 4 µg/mL and the MIC [5] was 2 µg/mL. The MIC [4, 14] was 4 µg/mL, the MIC (Escherichia coli AG100; Escherichia coli AG100 WT) was >16 µg/mL and >8 µg/mL and the MIC (Haemophilus influenzae; read-out: MIC) was 0.25 µg/mL. For the same compound, the Ki (S. aureus DNA gyrase) was 27 nM.

`CCNC(=O)Nc1nc2cc(-c3cnc(C(C)(C)OP(=O)([O-])[O-])nc3)c(F)c([C@H]3CCCO3)c2[nH]1.[Na+].[Na+]` [Compound W, disodium (R)-2-(5-(2-(3-ethylureido)-6-fluoro-7-(tetrahydrofuran-2-yl)-1H-benzo[d]imidazol-5-yl)pyrimidin-2-yl)propan-2-yl phosphate] showed an AUCextrap ([6]; Compound W PO 100 mg/kg) of 437 ng·h/mL, a t1/2 ([6]; Compound W PO 100 mg/kg) of 5.31 h and a t1/2 ([6]; Compound W PO 300 mg/kg) of 13.15 h. The t1/2 ([7]; Compound W oral 30 mg/kg, 0.5% MC) was 3.1 h, the t1/2 ([7]; Compound W oral 100 mg/kg, 0.5% MC) was 7.2 h and the t1/2 ([7]; Compound W oral 300 mg/kg, 0.5% MC) was 11.3 h. For the same compound, the AUC ([7]; 30 mg/kg, Compound W oral 30 mg/kg, 0.5% MC) was 58 ng·h/mL, the AUC ([7]; 100 mg/kg, Compound W oral 100 mg/kg, 0.5% MC) was 66 ng·h/mL and the AUC ([7]; 300 mg/kg, Compound W oral 300 mg/kg, 0.5% MC) was 464 ng·h/mL. For the same compound, the AUC ([7]; 300 mg/kg, Compound W oral 300 mg/kg, 20% CAPT, 1% HPMC-AS, 1% PVP) was 4270 ng·h/mL, the “Log Reduction vs. Early Control” value ([8]; 10 mg/kg BID oral gavage) was 0.64 Log and the “Median Lung Burden” value ([8]; 10 mg/kg BID oral gavage) was 4.34 Log cfu/lungs. The “Log Reduction vs. Late Control” value ([8]; 10 mg/kg BID oral gavage, phosphate) was 0.02 Log, the “Log Reduction vs. Early Control” value ([8]; 30 mg/kg BID oral gavage) was 1.98 Log and the “Log Reduction vs. Late Control” value ([8]; 30 mg/kg BID oral gavage) was 1.36 Log. For the same compound, the “Median Lung Burden” value ([8]; 30 mg/kg BID oral gavage) was 3.00 Log cfu/lungs, the “Log Reduction vs. Early Control” value ([8]; 100 mg/kg BID oral gavage) was 2.63 Log and the “Median Lung Burden” value ([8]; 100 mg/kg BID oral gavage) was 2.35 Log cfu/lungs. For the same compound, the “Log Reduction vs. Late Control” value ([8]; 100 mg/kg BID oral gavage, phosphate) was 2.02 Log and 2.01 Log, the “reduction of bacterial burdens versus the early control” value ([8]; doses of 10, 30, and 100 mg/kg BID) was 0.64-2.63 logs and the “in vivo conversion of prodrug into parent” value [9] was “converted in vivo into Compound 23”. For the same compound, the AUCextrap ([10]; Compound W IV 1 mg/kg) was 419 ng·h/mL, the Cl_obs ([10]; Compound W IV 1 mg/kg) was 46.7 mL/min/kg and the Cmax/C0 ([10]; Compound W IV 1 mg/kg) was 4800 ng/mL. The Vss_obs ([10]; Compound W IV 1 mg/kg) was 0.38 L/kg, the AUCextrap ([10]; Compound W IV 5 mg/kg) was 1120 ng·h/mL and the Cl_obs ([10]; Compound W IV 5 mg/kg) was 84.6 mL/min/kg. The Cmax/C0 ([10]; Compound W IV 5 mg/kg) was 9030 ng/mL, the Vss_obs ([10]; Compound W IV 5 mg/kg) was 5.8 L/kg and the AUCextrap [11] was 5830 ng·h/mL. It also gave a t1/2 [11] of 5.35 h.

For `CCNC(=O)Nc1nc2cc(-c3cnc(C(C)(C)OP(=O)(O)O)nc3)c(F)c([C@H]3CCCO3)c2[nH]1` [Form B, (R)-2-(5-(2-(3-ethylureido)-6-fluoro-7-(tetrahydrofuran-2-yl)-1H-benzo[d]imidazol-5-yl)pyrimidin-2-yl)propan-2-yl dihydrogen phosphate], the “Net % increase in total impurities” value ([1]; 17 days, listed as B) was 0.16%, the “critical humidity for conversion of Free Form B back to Free Form A” value ([2]; At 25° C.) was “around 40%” and the Ki (S. aureus DNA Topo IV) was 10 nM. It also gave a Ki (E. coli DNA Topo IV) of less than 6 nM, an MIC [3, 12] of 4 µg/mL and an MIC [3, 13] of 1 µg/mL. The MIC [4, 14] was 4 µg/mL, the MIC (Escherichia coli AG100; Escherichia coli AG100 WT) was 2 µg/mL and the MIC (Escherichia coli AG100; Escherichia coli AG100 tolC) was 2 µg/mL. It also gave an MIC (Haemophilus influenzae) of 0.25 µg/mL and a Ki (S. aureus DNA gyrase) of less than 25 nM.

— patent US9018216B2, “Solid forms of (R)-2-(5-(2-(3-ethylureido)-6-fluoro-7-(tetrahydrofuran-2-yl)-1H-benzo[d]imidazol-5-yl)pyrimidin-2-yl)propan-2-yl dihydrogen phosphate and salts thereof” (priority 2012, dated 2015)
